In ChEMBL document CHEMBL2417526, “Stabilized cyclopropane analogs of the splicing inhibitor FD-895” (J Med Chem, 2013) one finds IC50 and Activity data, which are given here for 14 compounds.

The source made the active and inactive calls. No cut-off for these calls is given here.

One assay deals with HCT-116. As to the kind of experiment: Cytotoxicity against human HCT116 cells by MTT assay. In kind it is functional, cell-based.
A short description of assay [1]: Induction of apoptosis in human CLL cells by 3,3'-dihexyloxacarbocyanine iodide staining-based flow cytometry. In kind it is functional, cell-based.
In assay [2] the test system is B-CLL. In words: Inhibition of spliceosome-mediated splicing of DNAJB1 gene in human B-CLL cells at 0.1 uM after 4 hrs by RT-PCR analysis. In kind it is cell-based.
Assay [3] relates to B-CLL. In words: Inhibition of spliceosome-mediated splicing of DNAJB1 gene in human B-CLL cells at 0.1 to 1.0 uM after 4 hrs by RT-PCR analysis. In kind it is cell-based.
The test system of assay [4] is B-CLL. In words: Inhibition of spliceosome-mediated splicing of DNAJB1 gene in human B-CLL cells at 10 uM after 4 hrs by RT-PCR analysis. The class given is cell-based.

Turning to `CC[C@H](OC)[C@@H](C)[C@H]1O[C@@H]1[C@@H](O)[C@H](C)/C=C/C=C(\C)[C@H]1OC(=O)C[C@H](O)CCCC/C=C/[C@@H]1C`, the IC50 in the assay on HCT-116 was greater than 50 µM. On the same count and under the same terms, the same measure for `CC[C@H](OC)[C@@H](C)[C@H]1O[C@@H]1[C@H](OC(C)=O)[C@H](C)/C=C/C=C(\C)[C@H]1OC(=O)C[C@H](O)CC[C@@](C)(O)[C@@H](OC(C)=O)/C=C/[C@@H]1C`: 0.142 µM; for `CC[C@H](O)[C@@H](C)[C@H]1O[C@@H]1C[C@H](C)/C=C/C=C(\C)[C@H]1OC(=O)CCCCCC/C=C/[C@H]1C`: greater than 50 µM; for `CC[C@H](OC)[C@@H](C)[C@H]1O[C@@H]1[C@@H](O)[C@H](C)/C=C/C=C(\C)[C@H]1OC(=O)CCCCCC/C=C/[C@@H]1C`: greater than 50 µM. With `CC[C@H](OC)[C@@H](C)[C@H]1O[C@@H]1[C@@H](O)[C@@H](C)/C=C/C=C(\C)[C@H]1OC(=O)C[C@H](O)CC[C@@](C)(O)[C@@H](OC(C)=O)/C=C/[C@@H]1C`, the figures for the IC50 (in assay [1]; in the assay with HCT-116) were greater than 50 µM and 0.023 µM, respectively. With `CC[C@H](O)[C@@H](C)[C@H]1O[C@@H]1C[C@H](C)/C=C/C=C(\C)[C@H]1OC(=O)C[C@H](O)CC[C@@](C)(O)[C@@H](OC(C)=O)CC[C@@H]1C` [PLADIENOLIDE B], the IC50 worked out at 0.0305 µM in assay [1] and 0.0248 µM with HCT-116. The outcome in the assay on B-CLL [2] was Active. With `CC[C@H](OC)[C@@H](C)[C@H]1C[C@@H]1[C@@H](O)[C@@H](C)/C=C/C=C(\C)[C@H]1OC(=O)C[C@H](O)CC[C@@](C)(O)[C@@H](OC(C)=O)/C=C/[C@@H]1C`, it took 0.0823 µM to reach half-maximal inhibition in the assay on HCT-116 (IC50).

For the compound `CC[C@H](OC)[C@@H](C)[C@H]1O[C@@H]1[C@@H](O)[C@H](C)/C=C/C=C(\C)[C@H]1OC(=O)C[C@H](O)CC[C@@](C)(O)[C@@H](OC(C)=O)/C=C/[C@@H]1C`, the IC50 with HCT-116 turned out to be 0.0008 µM. On to `CC[C@H](OC)[C@@H](C)[C@H]1O[C@@H]1[C@H](OC(C)=O)[C@H](C)/C=C/C=C(\C)[C@H]1OC(=O)C[C@H](OC(C)=O)CC[C@@](C)(O)[C@@H](OC(C)=O)/C=C/[C@@H]1C`, for which the IC50 in the assay with HCT-116 was found to be 0.542 µM. With `CC[C@H](OC)[C@@H](C)[C@H]1C[C@@H]1[C@@H](O)[C@H](C)/C=C/C=C(\C)[C@H]1OC(=O)C[C@H](O)CC[C@@](C)(O)[C@@H](OC(C)=O)/C=C/[C@@H]1C`, the IC50 in assay [1] was 0.103 µM; in the assay with HCT-116, 0.0429 µM. In addition, the outcome in the assay on B-CLL [2] and with B-CLL [3] was Active.

For `CC[C@H](OC)[C@@H](C)[C@H]1O[C@@H]1[C@H](O)[C@@H](C)/C=C/C=C(\C)[C@H]1OC(=O)C[C@H](O)CC[C@@](C)(O)[C@@H](OC(C)=O)/C=C/[C@@H]1C`, the IC50 in assay [1] was found to be 0.109 µM; in the assay with HCT-116 it was 0.0037 µM. `CC[C@H](O)[C@@H](C)[C@H]1O[C@@H]1C[C@H](C)/C=C/C=C(\C)[C@H]1OC(=O)CCCCCC/C=C/[C@@H]1C` gave an IC50 with HCT-116 greater than 50 µM.

For the compound `Nc1nc(F)nc2c1ncn2[C@@H]1O[C@H](CO)[C@@H](O)[C@@H]1O`, the result in the assay on B-CLL [4] was inactive. With `CC[C@H](OC)[C@@H](C)[C@H]1O[C@@H]1[C@H](O)[C@H](C)/C=C/C=C(\C)[C@H]1OC(=O)C[C@H](O)CC[C@@](C)(O)[C@@H](OC(C)=O)/C=C/[C@@H]1C`, the results for the IC50 (in assay [1]; with HCT-116) were 0.0021 µM and 0.0235 µM, respectively. The outcome in the assay on B-CLL [2] was Active.
